# In PMC11423303, “Rational Design of Dual-Domain Binding Inhibitors for N-Acetylgalactosamine Transferase 2 with Improved Selectivity over the T1 and T3 Isoforms” (JACS Au, 2024):
# Read-outs that look alike come from different tables or passages of the source. Residues, ends and D or L forms follow the SMILES beside them. *: point of attachment. αGalNAc = CC(=O)N[C@@H]1[C@@H](O)[C@@H](O)[C@@H](CO)O[C@@H]1*; X2 = c1ccc2nc(C*)ccc2c1; X1 = c1csc(C*)c1
# Columns and labels:
# [1] = target: T1, GalNAc-T2 (Homo sapiens, UniProt Q10471); assay: Radiometric GalNAc-T2 inhibition assay with labeled UDP-GalNAc donor and MUC1a acceptor peptide; type: biochemical; conditions: for Relative inhibitory activity against GalNAc-T2: normalized concentration of 500 μM
# T1 construct: made in house; host or cells: Pichia pastoris
# T1 sequence (Q10471 whole entry): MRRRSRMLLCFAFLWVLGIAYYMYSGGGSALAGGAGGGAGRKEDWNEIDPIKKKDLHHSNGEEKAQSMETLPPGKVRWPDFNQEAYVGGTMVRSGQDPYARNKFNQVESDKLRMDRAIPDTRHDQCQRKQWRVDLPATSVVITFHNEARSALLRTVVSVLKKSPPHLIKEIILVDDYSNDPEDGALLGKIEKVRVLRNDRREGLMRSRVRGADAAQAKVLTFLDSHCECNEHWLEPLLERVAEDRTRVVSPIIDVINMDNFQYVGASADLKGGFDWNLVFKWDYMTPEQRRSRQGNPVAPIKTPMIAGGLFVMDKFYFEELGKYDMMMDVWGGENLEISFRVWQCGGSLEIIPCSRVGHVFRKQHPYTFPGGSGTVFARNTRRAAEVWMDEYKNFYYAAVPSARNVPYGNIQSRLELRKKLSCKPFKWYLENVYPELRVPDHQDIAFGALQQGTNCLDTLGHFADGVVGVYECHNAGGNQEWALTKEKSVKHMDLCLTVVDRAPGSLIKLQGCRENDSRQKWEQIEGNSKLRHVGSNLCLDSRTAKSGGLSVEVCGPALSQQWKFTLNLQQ
# Description: The glycosylation products were isolated from the radiolabeled donors through chromatographic techniques and analyzed by scintillation counting.
# (§1) 347 4. BIOCHEMICAL STUDIES
# (§2) 348 4.1. Reagents and substrates
# (§3) 349 Stock solutions of inhibitor (5mM) and MUC1a substrate (4mM) were prepared from
# (§4) 350 lyophilized powders. Additional serial dilutions of inhibitor were prepared of 1 mM, 200 µM, 50
# (§5) 351 µM, 10 µM, and 2 µM and the MUC1a substrate of 62.5 µM. Fully N-acetylated UDP-
# (§6) 352 [ 3H]GalNAc was obtained from American Radiolabeled Chemicals Inc (St. Louis, MO) whereas
# (§7) 353 nonlabelled UDP-GalNAc was obtained from Millipore-Sigma (St. Louis, MO). A 0.2 mM stock
# (§8) 354 solution of radiolabeled UDP-GalNAc was prepared by adding UDP-[ 3H]GalNAc to unlabeled
# (§9) 355 UDP-GalNAc to give ~6 x 10^8 DPM/µmole. ScintiVerse BD Cocktail fluid was obtained from
# (§10) 356 Fisher Scientific (Pittsburgh, PA). Liquid scintillation counting was performed on a Beckman
# (§11) 357 LS 6500 Scintillation Counter. BioPureSPN TARGA C18 macro spin columns were obtained
# (§12) 358 from The Nest Group Inc. (Ipswich, MA).
# (§13) 360 4.2. GalNAc-Ts expression
# (§14) 361 Human GalNAc-T1 was a gift of Kelley Moremen (CCRC, University of Georgia) and
# (§15) 362 expressed in HEK293F cells. Human GalNAc-T2, and -T3 were obtained from Ramon
# 363 Hertado-Guerrero (University of Zaragosa, SP) and expressed in Pichia pastoris.
# 366 The glycomimetic inhibitors were optimized using GalNAc-T2 activity assays as previously
# 367 described. The reactions were carried out in a total volume of 50 µl, containing 100 nM
# 369 cpm/nm) as the sugar donor. The designed glycomimetics were tested at a range of
# 371 conducted in 25 mM cacodylate buffer (pH 7.4) with 10 mM MnCl 2 and 0.25% Triton X-100,
# 372 and incubated at 22°C for 30 minutes. Excess UDP-[ 14C]GalNAc was removed from the
# 373 glycosylated peptide using DOWEX 1 chromatography, the product was subsequently
# 374 analyzed through scintillation counting.
# 377 protocol was used except UDP-[ 3H]GalNAc was utilized and the products isolated on Targa
# 378 C18 spin columns as previously described. Final enzyme concentrations were 100 nM for
# 379 GalNAc-T1 and -T3 and 200 nM for GalNAc-T2 while final MUC1a substrate and inhibitor 5
# 380 concentrations were as above. Reactions were incubated at 22°C for 30min for GalNAc-T1
# 381 and -T3 and 3h for GalNAc-T2. After incubation, reactions were quenched with 200µL of 0.5%
# 382 TFA in H 2O and passed through the spin columns. Columns were extensively washed with
# 383 0.1% TFA/H 2O and glycopeptide products eluted with 0.1% TFA in 50/50 acetonitrile/H2O
# 384 followed by 100% acetonitrile. The different eluates were analyzed by scintillation counting on
# 385 a Beckman LS 6500 Scintillation Counter. Relative percent peptide glycosylation was
# 386 calculated from the obtained 3H DPM as described in Ballard et al 2023. Reactions were
# 387 repeated twice for each transferase. After subtracting the no substrate blank, under these
# 390 Percent activity was plotted against the log concentration of inhibitor 19 in µM. […]
# [2] = target: T2, GalNAc-T3 (Homo sapiens, UniProt Q14435); assay: Radiometric GalNAc-T3 inhibition assay with UDP-[3H]GalNAc and MUC1a acceptor peptide; type: biochemical
# T2 construct: made in house; host or cells: Pichia pastoris
# T2 sequence (Q14435 1-633): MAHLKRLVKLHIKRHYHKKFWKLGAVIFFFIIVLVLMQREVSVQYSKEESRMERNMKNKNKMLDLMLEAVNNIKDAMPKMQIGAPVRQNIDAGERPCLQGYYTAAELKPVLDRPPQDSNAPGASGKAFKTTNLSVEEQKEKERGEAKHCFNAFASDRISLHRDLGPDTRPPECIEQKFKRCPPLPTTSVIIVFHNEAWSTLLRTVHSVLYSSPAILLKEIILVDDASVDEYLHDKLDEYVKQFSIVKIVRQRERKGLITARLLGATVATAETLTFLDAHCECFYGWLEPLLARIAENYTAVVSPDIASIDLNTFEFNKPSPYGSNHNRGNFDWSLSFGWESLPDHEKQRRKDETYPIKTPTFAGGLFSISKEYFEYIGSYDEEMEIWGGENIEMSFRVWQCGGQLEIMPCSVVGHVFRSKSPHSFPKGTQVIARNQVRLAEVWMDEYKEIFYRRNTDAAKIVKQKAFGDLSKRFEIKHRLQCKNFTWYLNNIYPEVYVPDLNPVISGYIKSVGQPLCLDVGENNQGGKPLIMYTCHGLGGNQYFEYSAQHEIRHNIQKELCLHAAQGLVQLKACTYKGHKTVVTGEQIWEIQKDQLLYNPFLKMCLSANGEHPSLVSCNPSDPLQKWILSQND
# Description: as §1, §2, §3, §4, §5, §6, §7, §8, §9, §10, §11, §12, §13, §14, §15
# (§16) 363 Hertado-Guerrero (University of Zaragosa, SP) and expressed in Pichia pastoris. […]
# (§17) 384 followed by 100% acetonitrile. The different eluates were analyzed by scintillation counting on […]
# (§18) 386 calculated from the obtained 3H DPM as described in Ballard et al 2023. […]
# [3] = target: T3, GalNAc-T1 (Homo sapiens, UniProt Q10472); assay: Radiometric GalNAc-T1 inhibition assay with UDP-[3H]GalNAc and MUC1a acceptor peptide; type: biochemical
# T3 construct: made in house; host or cells: HEK293F cells (gift of Kelley Moremen, CCRC, University of Georgia)
# T3 sequence (Q10472 1-559): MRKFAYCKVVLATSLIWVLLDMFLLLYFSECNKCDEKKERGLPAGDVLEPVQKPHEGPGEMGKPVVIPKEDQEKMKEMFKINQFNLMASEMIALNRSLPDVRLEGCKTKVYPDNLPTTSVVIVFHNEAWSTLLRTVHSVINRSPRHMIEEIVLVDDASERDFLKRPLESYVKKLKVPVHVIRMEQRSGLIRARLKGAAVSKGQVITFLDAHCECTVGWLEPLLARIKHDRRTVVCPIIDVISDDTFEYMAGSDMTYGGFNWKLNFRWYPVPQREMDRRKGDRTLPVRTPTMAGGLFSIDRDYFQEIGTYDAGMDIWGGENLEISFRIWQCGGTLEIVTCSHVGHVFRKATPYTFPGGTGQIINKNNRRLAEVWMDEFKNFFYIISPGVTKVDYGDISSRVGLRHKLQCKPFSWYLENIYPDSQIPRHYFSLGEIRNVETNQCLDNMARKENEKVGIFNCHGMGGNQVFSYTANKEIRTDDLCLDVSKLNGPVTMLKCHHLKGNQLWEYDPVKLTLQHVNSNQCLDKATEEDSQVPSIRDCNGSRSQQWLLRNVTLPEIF
# Description: as §1, §2, §3, §4, §5, §6, §7, §8, §9, §10, §11, §12, §13, §14, §15, §16
# 367 described. […]
# as §17, §18
# [4] = tested on: FGF23 levels; set-up: method as in PMID 28362263; conditions: chronic kidney disease treatment; cited from earlier work
# [5] = tested on: GalNAc-T3; set-up: method as in PMID 28362263; conditions: cited from earlier work
# [6] = tested on: GalNAc-T6; set-up: method as in PMID 28362263; conditions: cited from earlier work
# [7] = tested on: GalNAc-T2; set-up: method as in PMID 28362263; conditions: cited from earlier work
# [8] = tested on: GalNAc-T2; set-up: method as in Wandall H. H. et al., [16]; conditions: ref Wandall H. H. et al., [16], cited from earlier work
# [9] = tested on: GalNAc-T3; set-up: method as in Wandall H. H. et al., [16]; conditions: ref Wandall H. H. et al., [16], cited from earlier work
# [10] = tested on: GalNAc-T1; set-up: method as in Wandall H. H. et al., [16]; conditions: ref Wandall H. H. et al., [16], cited from earlier work
# [11] = tested on: GalNAc-T2; set-up: method as in PMID 29061849; conditions: read-out: IC50 against GalNAc-T2; cited from earlier work
# [12] = calculated from IC50 by Cheng & Prusoff equation, MUC1a and UDP-GalNAc substrates
compound,measurement,setting,value
CC(=O)N[C@H]1[C@@H](O[C@H](C)[C@H](NC(=O)[C@H](C)NC(=O)[C@H](C)NC(=O)[C@H](C)NC(=O)[C@H](C)NC(=O)[C@@H]2CCCN2C(=O)[C@@H](NC(=O)[C@@H]2CCCN2C(=O)[C@H](CSCc2ccc3ccccc3n2)NC(=O)[C@@H]2CCCN2C(=O)[C@H](C)NC(=O)[C@H](C)NC(=O)CN)C(C)C)C(=O)N[C@@H](C)C(=O)N[C@@H](C)C(N)=O)O[C@H](CO)[C@H](O)[C@@H]1O [Compound 2] (H-GAAPC(X2)PVPAAAAT(αGalNAc)AA-NH2),IC50,[1],396 ± 172 µM
CC(=O)N[C@H]1[C@@H](O[C@H](C)[C@H](NC(=O)[C@H](C)NC(=O)[C@H](C)NC(=O)[C@H](C)NC(=O)[C@H](C)NC(=O)[C@@H]2CCCN2C(=O)[C@@H](NC(=O)[C@@H]2CCCN2C(=O)[C@H](CSCc2cccs2)NC(=O)[C@@H]2CCCN2C(=O)[C@H](C)NC(=O)[C@H](C)NC(=O)CN)C(C)C)C(=O)N[C@@H](C)C(=O)N[C@@H](C)C(N)=O)O[C@H](CO)[C@H](O)[C@@H]1O [Compound 3] (H-GAAPC(X1)PVPAAAAT(αGalNAc)AA-NH2),IC50,[1],84.5 ± 25.9 µM
"OCc1cccs1 [Compound 5, 2-thiophenemethanol]",Relative inhibitory activity against GalNAc-T2,[1]; MUC1a as acceptor substrate,unable to inhibit the enzyme
N[C@@H](CSCc1cccs1)C(=O)O [Compound 16],Relative inhibitory activity against GalNAc-T2,[1]; MUC1a as acceptor substrate,unable to inhibit the enzyme
CC(=O)N[C@H]1[C@@H](O[C@H](C)[C@H](NC(=O)[C@H](C)NC(=O)[C@H](C)NC(=O)[C@H](C)NC(=O)[C@H](C)NC(=O)[C@@H]2CCCN2C(=O)[C@H](Cc2c[nH]c3ccccc23)NC(=O)[C@@H]2CCCN2C(=O)[C@H](CSCc2cccs2)NC(=O)[C@@H]2CCCN2)C(=O)N[C@@H](C)C(=O)N[C@@H](C)C(N)=O)O[C@H](CO)[C@H](O)[C@@H]1O [Compound 18] (H-PC(X1)PWPAAAAT(αGalNAc)AA-NH2),IC50,"[1]; MUC1a as acceptor substrate, read-out: IC50 against GalNAc-T2",55.7 ± 31.5 µM
CC(=O)N[C@H]1[C@@H](O[C@H](C)[C@H](NC(=O)[C@H](C)NC(=O)[C@H](C)NC(=O)[C@@H](NC(=O)[C@H](CC(C)C)NC(=O)[C@@H]2CCCN2C(=O)[C@H](CC(C)C)NC(=O)[C@@H]2CCCN2C(=O)[C@H](CSCc2cccs2)NC(=O)[C@@H]2CCCN2)C(C)C)C(=O)N[C@@H](C)C(=O)N[C@@H](C)C(N)=O)O[C@H](CO)[C@H](O)[C@@H]1O [Compound 19] (H-PC(X1)PLPLVAAT(αGalNAc)AA-NH2),IC50,"[2]; MUC1a as acceptor substrate, read-out: IC50 against GalNAc-T3",171 ± 62.2 µM
same,Ki,[2]; [12],154 µM
same,IC50,[1],21.4 ± 4.1 µM
same,IC50,"[3]; MUC1a as acceptor substrate, read-out: IC50 against GalNAc-T1",678 ± 197 µM
same,Ki,[3]; [12],668 µM
O=C(Nc1ccc(Nc2ccncc2)cc1)c1ccc(Nc2ccnc3ccc([N+](=O)[O-])cc23)cc1 [T3Inh-1],FGF23 levels in mice,[4],lower the FGF23 levels
same,Activity against GalNAc-T3,[5],can act against GalNAc-T3
same,Activity against T6 variant,[6],no activity
same,Activity against T2 variant,[7],no activity
"CC(=O)N[C@H]1[C@@H](OP(=O)(O)OP(=O)(O)OC[C@H]2O[C@@H](n3ccc(=O)[nH]c3=O)[C@H](O)[C@@H]2O)O[C@H](CO)[C@H](O)[C@@H]1O [UDP-GalNAc, uridine diphosphate-GalNAc]",Km,[8]; read-out: Km(UDP-GalNAc) GalNAc-T2,10 µM
same,Km,[9]; read-out: Km(UDP-GalNAc) GalNAc-T3,29 µM
same,Km,[10]; read-out: Km(UDP-GalNAc) GalNAc-T1,62 µM
O=c1cc(-c2ccc(O)c(O)c2)oc2cc(O)cc(O)c12 [luteolin],IC50,[11],14.7 µM
MUC1a: model peptide acceptor substrate with sequence AHGVTSAPDTR,Km,[8]; read-out: Km(MUC1a) GalNAc-T2,2130 µM
same,Km,[9]; read-out: Km(MUC1a) GalNAc-T3,90 µM
same,Km,[10]; read-out: Km(MUC1a) GalNAc-T1,660 µM
thiophene [Compound 15],Relative inhibitory activity against GalNAc-T2,[1]; MUC1a as acceptor substrate,unable to inhibit the enzyme
